{"source": "paper PMC4698308", "about": "“A new amino acid substitution (Ala-205-Phe) in acetolactate synthase (ALS) confers broad spectrum resistance to ALS-inhibiting herbicides” (Planta, 2015)", "key": {"[1]": {"test_system": "annual bluegrass (Poa annua L.)", "test": "Whole plant non-target site resistance experiment with P450 inhibitors malathion or PBO (control 21 days after treatment)", "type": "in vivo", "settings": "for Annual bluegrass control S: susceptible (S)", "method": "Additional experiments were conducted during March–April 2015 to determine if non-target site based mechanisms conferred resistance to ALS inhibitors in our annual bluegrass population, POAAN-R3. Plants (RP6, RP7, and S) were cultured in plastic conical containers as previously described and allowed to acclimate to the glasshouse for 18 days prior to initiating two experiments.\nIn the first experiment, resistant (RP6, RP7) and susceptible (S) plants were treated with foramsulfuron at 29 g ha^−1, trifloxysulfuron (Monument. Syngenta Professional Products. Greensboro, NC, USA) at 27.8 g ha^−1, imazaquin (Image. BASF Corporation. Research Triangle Park, NC) at 27.5 g ha^−1, or bispyribac-sodium (Velocity. Valent USA Corporation. Walnut Creek, CA, USA) at 70 g ha^−1. All herbicides were applied alone or in combination with either malathion (Spectrum Group. St. Louis, MO, USA) at 1000 g ha^−1 or piperonyl butoxide (Sigma Aldrich. St. Louis, MO, USA) at 2100 g ha^−1. Malathion and piperonyl butoxide (PBO) inhibit cytochrome P450 monooxygenases involved in metabolism of ALS inhibiting herbicides and are commonly used at the application rates tested herein to evaluate non-target site based resistance mechanisms in weeds (Burnet et al. [1994]; Christopher et al. [1992]; Yu and Powles [2014b]; Rao et al. [1995]). All herbicides were mixed in water carrier and included non-ionic surfactant at 0.25 % v/v. Malathion and PBO were mixed with methanol and de-ionized water (50:50) and applied 60 min prior to herbicide application using a previously described enclosed spray chamber on 13 February 2015.\nAnnual bluegrass control was visually assessed on a 0 (i.e., no control) to 100 % (i.e., complete kill) scale relative to the non-treated 21 days after treatment. After all control data had been collected, aboveground biomass was harvested from each plastic conical container at the soil line using scissors, dried at 100 °C, and weighed. Treatments were arranged as a 3 × 5 × 3 factorial with three plant selections (RP6, RP7, S), five herbicides (foramsulfuron, trifloxysulfuron, imazaquin, bispyribac-sodium, non-treated) and three P450 inhibitor treatments (malathion, PBO, non-treated) in a completely randomized design with four replications and repeated in separate glasshouses during February 2015."}, "[2]": {"test_system": "annual bluegrass (Poa annua L.)", "test": "Whole plant non-target site resistance experiment, foramsulfuron vs sulfometuron (control and plant height 28 days after treatment)", "type": "in vivo", "method": "A second experiment was conducted to determine if non-target mechanisms could confer resistance to ALS inhibiting herbicides in our annual bluegrass population, POAAN-R3. ALS-resistant (RP1–RP8) and susceptible (S) plants were cultured in plastic conical containers under previously described glasshouse conditions for 28 days before being treated with foramsulfuron (29 g ha^−1) or sulfometuron-methyl (Oust XP; Dupont Professional Products. Wilmington, DE, USA) at 105 g ai ha^−1. Sulfometuron-methyl is an ALS inhibiting herbicide not metabolized by cytochrome P450 monooxygenases; therefore, it can be used to discern if weed populations survive ALS inhibiting herbicide treatment via target- or non-target site based mechanisms (Christopher et al. [1992]). Per label recommendations, sulfometuron-methyl included non-ionic surfactant at 0.25 % v/v. Treatments were mixed in water carrier applied in an enclosed spray chamber, as previously described, on 13 March 2015.\nAnnual bluegrass control was visually assessed on a 0 (i.e., no control) to 100 % (i.e., complete kill) scale relative to the non-treated 28 days after treatment. After all control data had been collected, plant height data were collected using a ruler placed at the soil surface of each plastic conical container and recording the distance to the tip of the bud leaf. Treatments were arranged as a 9 × 3 factorial with nine plant selections (RP1–RP8, S) and three herbicides (foramsulfuron, sulfometuron-methyl, non-treated) in a completely randomized design with four replications and repeated in separate glasshouses during March 2015."}, "[3]": {"test_system": "ALS in POAAN-R3 and susceptible annual bluegrass plants", "parameters": "method as in Brosnan et al. [2015]", "settings": "increasing concentrations from 0 to 100 μM; ref Brosnan et al. [2015]; cited from earlier work"}, "[4]": {"biological_target": "T1, recombinant Arabidopsis thaliana ALS wild-type enzyme (WT—sensitive) (Arabidopsis thaliana, UniProt P17597)", "T1 construct": "Protein constructs contained an 85 amino acid N-terminal deletion (chloroplast transit peptide); Hexa-histidine tag (N); made in house", "T1 sequence (P17597 86-670)": "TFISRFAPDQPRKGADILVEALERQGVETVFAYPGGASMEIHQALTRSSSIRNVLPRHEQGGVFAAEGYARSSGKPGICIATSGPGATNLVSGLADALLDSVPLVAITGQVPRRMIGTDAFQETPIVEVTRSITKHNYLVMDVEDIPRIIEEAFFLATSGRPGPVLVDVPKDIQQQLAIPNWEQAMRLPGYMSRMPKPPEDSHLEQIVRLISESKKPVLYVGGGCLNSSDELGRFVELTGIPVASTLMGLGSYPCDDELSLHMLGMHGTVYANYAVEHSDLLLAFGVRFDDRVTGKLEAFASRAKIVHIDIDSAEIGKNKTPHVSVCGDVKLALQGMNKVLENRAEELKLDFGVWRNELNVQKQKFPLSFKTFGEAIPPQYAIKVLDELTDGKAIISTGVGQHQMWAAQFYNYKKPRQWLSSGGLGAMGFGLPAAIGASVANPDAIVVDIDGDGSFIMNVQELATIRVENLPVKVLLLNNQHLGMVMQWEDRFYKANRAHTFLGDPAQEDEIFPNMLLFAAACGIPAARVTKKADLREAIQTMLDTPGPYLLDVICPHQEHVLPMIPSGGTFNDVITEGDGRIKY", "test": "biochemical", "in_short": "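His-tagged enzymes lacking the 85-residue N-terminal transit peptide, expressed and purified. Herbicides in DMSO added; reaction 60 min at 30 °C, stopped with H2SO4, acetolactate converted to acetoin at 56 °C for 15 min.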"}}}
{"smiles": "COc1cc(OC)nc(NC(=O)NS(=O)(=O)c2cc(NC=O)ccc2C(=O)N(C)C)n1", "note": "[Foramsulfuron]", "values": [{"measurement": "Annual bluegrass control RP6", "setting": "[1]; RP6, herbicide alone, foramsulfuron 29, trifloxysulfuron 27.8, imazaquin 27.5, bispyribac-sodium 70 g ha^−1", "value": 58, "unit": "%"}, {"measurement": "Annual bluegrass control RP6", "setting": "[1]; RP6, herbicide with PBO 2100 g ha^−1 applied 60 min prior", "value": 31, "unit": "%"}, {"measurement": "Annual bluegrass control RP6", "setting": "[1]; RP6, herbicide with malathion 1000 g ha^−1 applied 60 min prior", "value": 24, "unit": "%"}, {"measurement": "Annual bluegrass control RP7", "setting": "[1]; RP7, herbicide alone, foramsulfuron 29, trifloxysulfuron 27.8, imazaquin 27.5, bispyribac-sodium 70 g ha^−1", "value": 28, "unit": "%"}, {"measurement": "Annual bluegrass control RP7", "setting": "[1]; RP7, herbicide with PBO 2100 g ha^−1 applied 60 min prior", "value": 24, "unit": "%"}, {"measurement": "Annual bluegrass control RP7", "setting": "[1]; RP7, herbicide with malathion 1000 g ha^−1 applied 60 min prior", "value": 22, "unit": "%"}, {"measurement": "Annual bluegrass control S", "setting": "[1]; herbicide alone, foramsulfuron 29, trifloxysulfuron 27.8, imazaquin 27.5, bispyribac-sodium 70 g ha^−1", "value": 91, "unit": "%"}, {"measurement": "Annual bluegrass control S", "setting": "[1]; herbicide with PBO 2100 g ha^−1 applied 60 min prior", "value": 95, "unit": "%"}, {"measurement": "Annual bluegrass control S", "setting": "[1]; herbicide with malathion 1000 g ha^−1 applied 60 min prior", "value": 96, "unit": "%"}, {"measurement": "Annual bluegrass control RP1", "setting": "[2]; RP1, 28 days after treatment, minimum of two tillers, foramsulfuron 29, sulfometuron 105 g ha^−1", "value": 8, "unit": "%"}, {"measurement": "Annual bluegrass height RP1", "setting": "[2]; RP1, plant height 28 days after treatment, foramsulfuron 29, sulfometuron 105 g ha^-1, non-treated 118 mm", "value": 77, "unit": "mm"}, {"measurement": "Annual bluegrass control RP2", "setting": "[2]; RP2, 28 days after treatment, minimum of two tillers, foramsulfuron 29, sulfometuron 105 g ha^−1", "value": 2, "unit": "%"}, {"measurement": "Annual bluegrass height RP2", "setting": "[2]; RP2, plant height 28 days after treatment, foramsulfuron 29, sulfometuron 105 g ha^-1, non-treated 129 mm", "value": 74, "unit": "mm"}, {"measurement": "Annual bluegrass control RP3", "setting": "[2]; RP3, 28 days after treatment, minimum of two tillers, foramsulfuron 29, sulfometuron 105 g ha^−1", "value": 5, "unit": "%"}, {"measurement": "Annual bluegrass height RP3", "setting": "[2]; RP3, plant height 28 days after treatment, foramsulfuron 29, sulfometuron 105 g ha^-1, non-treated 173 mm", "value": 100, "unit": "mm"}, {"measurement": "Annual bluegrass control RP4", "setting": "[2]; RP4, 28 days after treatment, minimum of two tillers, foramsulfuron 29, sulfometuron 105 g ha^−1", "value": 11, "unit": "%"}, {"measurement": "Annual bluegrass height RP4", "setting": "[2]; RP4, plant height 28 days after treatment, foramsulfuron 29, sulfometuron 105 g ha^-1, non-treated 140 mm", "value": 85, "unit": "mm"}, {"measurement": "Annual bluegrass control RP5", "setting": "[2]; RP5, 28 days after treatment, minimum of two tillers, foramsulfuron 29, sulfometuron 105 g ha^−1", "value": 8, "unit": "%"}, {"measurement": "Annual bluegrass height RP5", "setting": "[2]; RP5, plant height 28 days after treatment, foramsulfuron 29, sulfometuron 105 g ha^-1, non-treated 114 mm", "value": 75, "unit": "mm"}, {"measurement": "Annual bluegrass control RP6", "setting": "[2]; RP6, 28 days after treatment, minimum of two tillers, foramsulfuron 29, sulfometuron 105 g ha^−1", "value": 46, "unit": "%"}, {"measurement": "Annual bluegrass height RP6", "setting": "[2]; RP6, plant height 28 days after treatment, foramsulfuron 29, sulfometuron 105 g ha^-1, non-treated 106 mm", "value": 68, "unit": "mm"}, {"measurement": "Annual bluegrass control RP7", "setting": "[2]; RP7, 28 days after treatment, minimum of two tillers, foramsulfuron 29, sulfometuron 105 g ha^−1", "value": 5, "unit": "%"}, {"measurement": "Annual bluegrass height RP7", "setting": "[2]; RP7, plant height 28 days after treatment, foramsulfuron 29, sulfometuron 105 g ha^-1, non-treated 125 mm", "value": 75, "unit": "mm"}, {"measurement": "Annual bluegrass control RP8", "setting": "[2]; RP8, 28 days after treatment, minimum of two tillers, foramsulfuron 29, sulfometuron 105 g ha^−1", "value": 3, "unit": "%"}, {"measurement": "Annual bluegrass height RP8", "setting": "[2]; RP8, plant height 28 days after treatment, foramsulfuron 29, sulfometuron 105 g ha^-1, non-treated 132 mm", "value": 94, "unit": "mm"}, {"measurement": "Annual bluegrass control S", "setting": "[2]; susceptible (S), 28 days after treatment, minimum of two tillers, foramsulfuron 29, sulfometuron 105 g ha^−1", "value": 93, "unit": "%"}, {"measurement": "Annual bluegrass height S", "setting": "[2]; susceptible (S), plant height 28 days after treatment, foramsulfuron 29, sulfometuron 105 g ha^-1, non-treated 111 mm", "value": 18, "unit": "mm"}, {"measurement": "differences in the in vitro activity of ALS in POAAN-R3 and susceptible plants", "setting": "[3]", "value": "no differences"}, {"measurement": "IC50", "setting": "[4]", "value": 7.5, "unit": "nM"}]}
